Results on 50 molecules are retold here after PubChem BioAssay AID520 (NMMLSC, 2006).

In this experiment the target is N-formyl peptide receptor 2 (Homo sapiens) (UniProt P25090). Put plainly: FPRL1 binding inhibitor potency, dose response, cell-based, FPR counter-screen, fluorescent ligand (AID 520). The settings on record: FPRL1-expressing cells, fluorescent ligand binding inhibition; for Ki: measured here: FPRL1 binding Ki. Background: Counterscreens check selectivity or assay interference.

The source made the active and inactive calls. How the calls were made is not given here. Some results are limits rather than exact numbers.

Sequence of N-formyl peptide receptor 2 (Homo sapiens) (P25090 whole entry, looked up): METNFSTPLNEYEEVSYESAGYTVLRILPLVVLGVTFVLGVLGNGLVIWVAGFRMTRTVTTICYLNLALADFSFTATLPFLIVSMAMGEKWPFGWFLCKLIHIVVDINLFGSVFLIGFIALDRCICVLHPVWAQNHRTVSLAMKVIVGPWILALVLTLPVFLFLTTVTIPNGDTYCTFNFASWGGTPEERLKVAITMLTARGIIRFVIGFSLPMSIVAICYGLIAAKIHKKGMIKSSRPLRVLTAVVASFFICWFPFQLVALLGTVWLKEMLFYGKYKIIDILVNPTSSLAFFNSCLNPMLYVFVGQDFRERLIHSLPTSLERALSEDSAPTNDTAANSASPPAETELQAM

Usually Ki stands for the equilibrium dissociation constant of an inhibitor or competing ligand from its target. Molecule `O=c1cc(-c2ccccc2)nc(N2CCN(Cc3ccccc3)CC2)[nH]1` gave an inhibition constant Ki above 40.3 µM.
In general, IC50 refers to the concentration that inhibits the measured activity by half. Regarding `O=C(C1=C(O)C(=O)N(Cc2ccccc2)C1c1ccncc1)c1ccco1` (stereo not given), the IC50 was > 66.7 µM (inactive) and the Ki is above 40.3 µM.
For `O=C(O)C1CC=CCC1C(=O)N1CCN(c2nc(-c3ccccc3)c3ccccc3n2)CC1` (stereo not given), the Ki is above 40.3 µM.
`O=c1c2c(nc3c(-c4ccc(Cl)cc4)c[nH]n13)CCCC2` showed an inhibition constant Ki above 40.3 µM.
In turn, `CC(C)(C)CC(=O)Nc1ccc(Nc2ccccc2)cc1` returned a Ki above 40.3 µM.
With `CCSc1nnc(NC(=O)CSc2nnc(Cc3cccn3C)n2CCc2ccccc2)s1`, the Ki is above 40.3 µM.
As for `C=CCOc1ccc(C2C(C(=O)c3cccs3)=C(O)C(=O)N2c2nnc(C)s2)cc1` (stereo not given), the IC50 was > 66.7 µM (inactive) and the inhibitory constant (Ki) was above 40.3 µM.
Regarding `O=C1C(CCS(=O)c2ccccc2)C(=O)N(c2ccccc2)N1c1ccccc1` (stereo not given), the IC50 was > 66.7 µM (inactive) and the inhibitory constant (Ki) was above 40.3 µM.
`COc1ccc(NC(=O)C2C(=O)NC3(C)CC2c2ccccc2O3)cc1` (stereo not given) yielded a Ki above 40.3 µM.
The molecule `Cc1ccc(NC(=O)C2C(=O)N(CCO)C3(C)CC2c2ccccc2O3)cc1` (stereo not given) returned a Ki above 40.3 µM.
For `Cc1ccc(C2/C(=C(/O)c3ccc(Cl)cc3)C(=O)C(=O)N2CC2CCCO2)o1` (stereo not given), the IC50 is > 66.7 µM (inactive) and the inhibition constant (Ki) is above 40.3 µM.
`CCc1nn2c(=O)cc(CSc3nc4sc5c(c4c(=O)n3C)CCCC5)nc2s1` gave a Ki above 40.3 µM.
On to `COc1ccc(C2C(C(=O)c3ccco3)=C(O)C(=O)N2Cc2cccnc2)cc1OC` (stereo not given), for which the IC50 is > 66.7 µM (inactive) and the Ki is above 40.3 µM.
The molecule `CCCc1nc2ccccc2c2nc(N)nn12` registered a Ki above 40.3 µM.
`COc1ccc(-n2c(Cc3cccn3C)nnc2SCC(=O)Nc2ccc(Cl)cc2)cc1` displayed a Ki above 40.3 µM.
On to `COC(=O)c1ccc(C2/C(=C(/O)c3ccc(OC)cc3)C(=O)C(=O)N2Cc2ccco2)cc1` (stereo not given), for which the IC50 was > 66.7 µM (inactive) and the Ki was above 40.3 µM.
With `CCOc1ccc(/C(O)=C2/C(=O)C(=O)N(CC3CCCO3)C2c2ccco2)cc1` (stereo not given), the IC50 was > 66.7 µM (inactive) and the Ki was above 40.3 µM.
For `COc1cc(C2C(C(=O)c3ccco3)=C(O)C(=O)N2c2cc(C)on2)cc(Br)c1O` (stereo not given), the IC50 was > 66.7 µM (inactive) and the Ki is above 40.3 µM.
With `O=C(C1=C(O)C(=O)N(CC2CCCO2)C1c1cccnc1)c1ccco1` (stereo not given), the IC50 is > 66.7 µM (inactive) and the Ki is above 40.3 µM.
On to `CCN(CC)c1ccc(C=N/C(C#N)=C(\N)C#N)cc1`, for which the IC50 is > 66.7 µM (inactive) and the inhibition constant (Ki) is above 40.3 µM.
As for `CCC(C)(C(=O)NC1CCCC1)N(CC1CCCO1)C(=O)c1ccc2c(c1)OCO2` (stereo not given), the Ki was above 40.3 µM.
As to `COc1cc(C2C(C(=O)c3ccc(C)o3)=C(O)C(=O)N2CCc2ccccc2)ccc1O` (stereo not given), the IC50 is > 66.7 µM (inactive) and the Ki is above 40.3 µM.
Consider `O=C(C1=C(O)C(=O)N(CCN2CCOCC2)C1c1ccccc1)c1cccs1` (stereo not given), for which the IC50 is > 66.7 µM (inactive) and the inhibition constant Ki is above 40.3 µM.
In turn, `O=C(Cn1cnc2c(cnn2-c2ccc(F)cc2)c1=O)OCc1ccccc1` gave a Ki above 40.3 µM.
Take `COc1ccc(C2C(C(=O)c3cccs3)=C(O)C(=O)N2c2nnc(C)s2)cc1OC` (stereo not given): the IC50 was > 66.7 µM (inactive) and the inhibition constant Ki is above 40.3 µM.
Regarding `O=C(NC1CCCC1)c1sc(=S)n2c1[nH]c(=O)c1ccccc12`, the Ki was above 40.3 µM.
On the same count and under the same terms, with `Cc1ccc(F)c(NC(=O)C2CCCCC2C(=O)O)c1` (stereo not given) the figure was above 40.3 µM.
On to `COC(=O)COc1ccc2c(=O)c(Oc3ccccc3)c(C)oc2c1`, for which the Ki was above 40.3 µM.
In the case of `Cc1ccc(/C(O)=C2/C(=O)C(=O)N(CCN3CCOCC3)C2c2cccnc2)cc1` (stereo not given), the IC50 was > 66.7 µM (inactive) and the Ki is above 40.3 µM.
Regarding `COCCCN1C(=O)C(O)=C(C(=O)c2ccco2)C1c1ccccc1` (stereo not given), the IC50 is > 66.7 µM (inactive) and the Ki is above 40.3 µM.
In turn, `COc1ccc(OC)c(C(=O)c2nc3c(n2O)CCCCC3)c1` yielded a Ki above 40.3 µM.
As to `O=C(C1=C(O)C(=O)N(CCCN2CCOCC2)C1c1ccccn1)c1cc2ccccc2o1` (stereo not given), the IC50 is > 66.7 µM (inactive) and the Ki was above 40.3 µM.
Regarding `C/C(=C1/SC(N2CCCC2)=NC1=O)c1ccc(Br)cc1`, the IC50 was > 66.7 µM (inactive) and the Ki is above 40.3 µM.
`CCOC(=O)c1c(NC(=O)c2cc(C3CC3)on2)sc2c1CCCC2` had a Ki above 40.3 µM.
The same measure, in the same setting: with `CCCCn1c(NC(C)=O)c(C#N)c2nc3ccccc3nc21` the figure was above 40.3 µM; with `CCOC(=O)N1CCN(c2cc(NCCC(=O)O)c3c4c(onc24)-c2ccccc2C3=O)CC1`, 30.1 µM.
With `COC(=O)c1[nH]c(C)c(/C(O)=C2\C(=O)C(=O)N(CCN3CCOCC3)C2c2cccs2)c1C` (stereo not given), the IC50 was > 66.7 µM (inactive) and the Ki was above 40.3 µM.
`CCC(NC(=O)Nc1cc(OC)c(OC)c(OC)c1)(C(F)(F)F)C(F)(F)F` had a Ki above 40.3 µM.
For `COc1cccc(C2C(C(=O)c3cc4ccccc4o3)=C(O)C(=O)N2c2cc(C)on2)c1OC` (stereo not given), the IC50 is > 66.7 µM (inactive) and the Ki is above 40.3 µM.
`Cc1c(C)c2cc(Cl)c(O)c(CN3CCCCC3)c2oc1=O` returned an inhibitory constant (Ki) above 40.3 µM.
`COc1cccc(OC)c1/C(O)=C(\C#N)c1nc2ccccc2[nH]1`: the IC50 was > 66.7 µM (inactive) and the Ki was above 40.3 µM.
With `Cc1ccccc1Nc1cc2ccccc2c(=O)[nH]1`, the Ki is above 40.3 µM.
`CCc1c(C)nc2c(C#N)c(C)[nH]n2c1=O` showed a Ki above 40.3 µM.
As for `CCn1cc(C(=O)NC2CCC(C)CC2)c(=O)c2cc(S(=O)(=O)N3CCCCC3)ccc21` (stereo not given), the inhibitory constant (Ki) was above 40.3 µM.
On the same count and under the same terms, with `COCCN1Cc2cccc(C(=O)NCc3ccc4c(c3)OCO4)c2C1=O` the figure was above 40.3 µM.
The molecule `Cc1cc(NC(=O)CSc2nnc(Cn3c(=O)sc4ccccc43)n2-c2ccccc2C)no1` showed a Ki above 40.3 µM.
For the molecule `O=C(NCCCN1CCN(c2ccc(F)cc2)CC1)c1cccc(N2CCCC2=O)c1`, the Ki is above 40.3 µM.
Take `Cc1nnc(SCc2cnc(-c3ccccc3)o2)[nH]c1=O`: the Ki was above 40.3 µM.
`O=C(Nc1ccc(Nc2ccccc2)cc1)c1ccc(Br)o1` returned a Ki above 40.3 µM.
Molecule `CCc1cc2c(=O)c(-c3nc4ccccc4n3C)c(COCC(=O)O)oc2cc1OC(=O)C(C)(C)C` showed a Ki above 40.3 µM.
